Data on 1 substance can be found in US7029857B1, “Processes for obtaining compounds employing SNORF72 receptors” (H. Lundbeck A/S, priority 1999, dated 2006).

No end group written: not given here.

One experiment addresses T1, SNORF72 (Homo sapiens, UniProt Q9GZQ4, A395T).
T1 construct: expressed in transfected cells; host or cells: COS-7 (transient, DEAE-dextran)
Kind of experiment: Intracellular Ca2+ release (FLIPR) in SNORF72-transfected COS-7 cells. The format is cell-based. The following applies: SNORF72-transfected COS-7 cells, peptides at 300 nM (FIG. 8).

Experiment [1] concerns the target T2, SNORF62 (Homo sapiens, UniProt Q9HB89).
T2 sequence (Q9HB89 1-426): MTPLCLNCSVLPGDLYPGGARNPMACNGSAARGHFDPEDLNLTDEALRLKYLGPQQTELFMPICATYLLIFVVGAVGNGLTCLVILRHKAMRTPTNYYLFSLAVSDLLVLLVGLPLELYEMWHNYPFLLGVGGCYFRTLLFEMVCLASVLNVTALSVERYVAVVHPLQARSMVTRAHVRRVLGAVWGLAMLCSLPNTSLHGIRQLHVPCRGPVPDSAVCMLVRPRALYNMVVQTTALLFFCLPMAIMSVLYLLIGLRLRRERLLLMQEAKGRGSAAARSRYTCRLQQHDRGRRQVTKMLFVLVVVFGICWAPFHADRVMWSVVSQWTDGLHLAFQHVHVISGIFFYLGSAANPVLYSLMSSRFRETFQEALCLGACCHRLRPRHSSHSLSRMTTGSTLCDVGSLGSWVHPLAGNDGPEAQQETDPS
The experiment in a line: Inositol phosphate (IP) release in SNORF62-transfected COS-7 cells. The arrangement: The SNORF62 cDNA codes for a protein of 426 amino acids; expressed in transfected cells; host or cells: COS-7 (transient, DEAE-dextran). The format is cell-based.
Protocol: Human SNORF62 receptor-mediated activation and human SNORF72 receptor-mediated activation of the inositol phosphate (IP) second messenger pathways were assessed by radiometric measurement of IP products.
For example, in a 96 well microplate format assay, COS-7 cells expressing the receptor of interest were plated at a density of 70,000 cells per well and allowed to incubate for 24 hours. The cells were then labeled with 0.5 μCi [^3H]myo-inositol overnight at 37° C., 5% CO2. Immediately before the assay, the medium was removed and replaced with 180 μL of Phosphate-Buffered Saline (PBS) containing 10 mM LiCl. The plates were then incubated for 20 min at 37° C., 5% CO2. Following the incubation, the cells were challenged with agonist (20 μl/well; 10× concentration) for 30 min at 37° C. The challenge was terminated by the addition of 100 μL of 5% v/v trichloroacetic acid, followed by incubation at 4° C. for greater than 30 minutes. Total IPs were isolated from the lysate by ion exchange chromatography. Briefly, the lysed contents of the wells were transferred to a Multiscreen HV filter plate (Millipore) containing Dowex AG1-X8 (200–400 mesh, formate form). The filter plates were prepared adding 100 μL of Dowex AG1-X8 suspension (50% v/v, water: resin) to each well. The filter plates were placed on a vacuum manifold to wash or elute the resin bed. Each well was first washed 2 times with 200 μl of 5 mM myo-inositol. Total [^3H]inositol phosphates were eluted with 75 μl of 1.2M ammonium formate/0.1M formic acid solution into 96-well plates. 200 μL of scintillation cocktail was added to each well, and the radioactivity was determined by liquid scintillation counting.

The target in experiment [2] is T2, SNORF62. Kind of experiment: Calcium-activated Cl- currents in Xenopus oocytes injected with SNORF62 mRNA. In kind it is cell-based. Details: from linearized plasmids or PCR products containing the complete coding region of the gene; expressed in transfected cells; host or cells: Xenopus laevis oocytes injected with in vitro transcribed SNORF62 mRNA. As to conditions: 1 μM peptide, n=3. As to the method:
Heterologous expression of GPCRs in Xenopus oocytes has been widely used to determine the identity of signaling pathways activated by agonist stimulation (Gundersen et al., 1983; Takahashi et al., 1987). Activation of the phospholipase C (PLC) pathway is assayed by applying a test compound in ND96 solution to oocytes previously injected with mRNA for the human SNORF62 and observing inward currents at a holding potential of approximately −80 mV. The appearance of currents that reverse at −25 mV and display other properties of the Ca^++-activated Cl^− channel is indicative of receptor-acitivation of PLC and release of IP3 and intracellular Ca^++.
In the present invention, oocytes were harvested from Xenopus laevis and injected with mRNA transcripts as previously described (Quick and Lester, 1994; Smith et al., 1997). SNORF62 mRNA transcript was synthesized using the T7 polymerase (“Message Machine”, Ambion) from linearized plasmids or PCR products containing the complete coding region of the gene. Oocytes were injected with 1–50 ng synthetic receptor RNA and incubated for 3–8 days at 17° C. Currents were recorded under dual electrode voltage clamp (Axon Instruments Inc.) with 3 M KCl-filled glass microelectrodes having resistances of 1–2 Mohm. Unless otherwise specified, oocytes were voltage clamped at a holding potential of −80 mV. […]

For another experiment, the system named is control oocytes. Kind of experiment: Cl- currents in control oocytes lacking injection of foreign mRNA. In kind it is cell-based, Xenopus laevis. As to the method:
In the present invention, oocytes were harvested from Xenopus laevis and injected with mRNA transcripts as previously described (Quick and Lester, 1994; Smith et al., 1997). SNORF62 mRNA transcript was synthesized using the T7 polymerase (“Message Machine”, Ambion) from linearized plasmids or PCR products containing the complete coding region of the gene. Oocytes were injected with 1–50 ng synthetic receptor RNA and incubated for 3–8 days at 17° C. Currents were recorded under dual electrode voltage clamp (Axon Instruments Inc.) with 3 M KCl-filled glass microelectrodes having resistances of 1–2 Mohm. Unless otherwise specified, oocytes were voltage clamped at a holding potential of −80 mV. During recordings, oocytes were bathed in continuously flowing (1–3 mL/min) medium containing 96 mM NaCl, 2 mM KCl, 1.8 mM CaCl2, 1 mM MgCl2, and 5 mM HEPES, pH 7.5 (ND96). Drugs were applied either by local perfusion from a 10 μL glass capillary tube fixed at a distance of 0.5 mm from the oocyte, or by switching from a series of gravity fed perfusion lines.

T1 sequence (Q9GZQ4 whole entry A395T): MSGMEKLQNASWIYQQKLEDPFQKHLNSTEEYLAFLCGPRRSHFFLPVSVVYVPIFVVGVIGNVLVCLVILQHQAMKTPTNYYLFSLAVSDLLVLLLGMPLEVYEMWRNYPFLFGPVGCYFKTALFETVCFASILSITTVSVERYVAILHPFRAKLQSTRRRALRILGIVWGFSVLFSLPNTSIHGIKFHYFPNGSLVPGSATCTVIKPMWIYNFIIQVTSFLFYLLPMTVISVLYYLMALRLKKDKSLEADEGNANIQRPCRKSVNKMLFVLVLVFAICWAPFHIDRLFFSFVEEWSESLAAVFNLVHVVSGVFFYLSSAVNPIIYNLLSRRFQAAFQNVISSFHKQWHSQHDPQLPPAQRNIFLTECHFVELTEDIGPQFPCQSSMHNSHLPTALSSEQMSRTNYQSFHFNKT

Regarding “FRVDEEFQSPFASQSRGYFLFRPRN-NH2 [human NMU-25, FRVDEEFQSPFASQSRGYFLFRPRN—NH2]”, on SNORF72, the “stimulation of intracellular Ca2+ release” value is given as “stimulated”. Also, the “release of IP second messengers above basal” value on SNORF62 [1] is on record as “approximately 2 fold”. For the same substance, the current amplitude at SNORF62 [2] was 1065±211 nA. The “response in control oocytes” value with control oocytes was “no response”.
